Source: PMC10415494, “Ga(III) pyridinecarboxylate complexes: potential analogues of the second generation of therapeutic Ga(III) complexes?” (Journal of Biological Inorganic Chemistry, 2023)
Read-outs that look alike come from different tables or passages of the source.

Columns and labels:
[1] = tested on: HepG2 (human liver cancer cell line); assay: MTT cell viability test; assay type: cell-based; settings: after 48 h
Procedure: Prior to each experiment, cell viability was determined using an automated cell counter (Countess II FL, Thermo Fisher Scientific, USA). 50 μl of the HepG2 cell suspension was transferred into new tube and 12.5 μl of trypan blue was added. After one minute, 10 μl was taken from the prepared suspension to determine the number of viable cells in 1 ml. The automated cell counter determined the total number of viable cells and the percentage of viability. […] Cells (2 × 10^4/200 μl) were incubated in 96-well microtiter plates for 24 and 48 h in the presence of metal complexes, picolinic acid, and gallium(III) nitrate, at 37 °C in humified atmosphere with 5% CO2. The cells were centrifuged for 10 min at 2500 rpm and 20 °C, supernatant was removed and 180 μl of fresh serum-free medium was added. Then 10 μl of MTT solution with a concentration of 5 mg/ml was added and cells were incubated for next 2–3 h in the dark until a precipitate formed. After centrifugation and removal of supernatant 150 μl of DMSO was added to the cells to dissolve the precipitate. Absorbance at 540 nm was measured using a spectrophotometer.

HepG2 cells = tested on: HepG2 cells; design: method as in PMID 16827101; settings: after 6 days of treatment; read-out: antiproliferative effect IC50; cited from earlier work
[2] = tested on: Escherichia coli (E. coli) CCM 3988; assay: Antimicrobial activity, macrodilution method (growth by A590); assay type: cell-based; settings: Bacteria, MHB, 37 °C, DMSO max 1.0 vol. %, read-out: IC50 E. coli
Procedure: (§1) The antimicrobial activities of gallium(III) complexes GaPic, GaDpic, GaChel, GaCldpic, free ligands (HPic, H2Dpic, H2Chel, H2Cldpic) and positive controls (cefoxitin (C), ampicillin (A) and piperacillin (P)) were evaluated by macrodilution method using G^+ bacteria (Firmicutes) Staphylococcus aureus (S. aureus) CCM 3953 (Czech Collection of Microorganisms), G^− bacteria (γ-proteobacteria) Escherichia coli (E. coli) CCM 3988, Pseudomonas aeruginosa (P. aeruginosa) CCM 1959 (Czech Collection of Microorganisms) and the yeast Candida parapsilosis (C. parapsilosis) ATCC 22019 (American type culture collection). Cultures of bacteria (in Mueller–Hinton broth, MHB) and yeasts (in Sabouraud’s growth medium, SB) were incubated under shaking (250 rpm) at 37 °C. The growth of bacteria and yeasts was evaluated by measuring the absorbance of the growing cultures (A590) until the cultures reached the stationary growth phase. The effects of gallium(III) complexes on the growth of filamentous fungi Rhizopus oryzae (R. oryzae) CCM F-8284, Alternaria alternata (A. alternata) CCM F-128 and Microsporum gypseum (M. gypseum) CCM F-8342 (Czech Collection of Microorganisms) were observed by macrodilution method on solidified potato-dextrose growth medium (PDA). During culturing, the diameters of growing fungal colonies were measured at regular intervals. Briefly, the antimicrobial activity (bacteria and yeasts) gallium(III) complexes/ ligands were added to the microbial culture at the beginning of the cultivation-to the lag phase. Pure gallium(III) complexes/ligands were dissolved in DMSO. The final concentration of DMSO never exceeded 1.0 vol. % neither in control nor treated samples. Concentration of gallium(III) complexes used in experimental work for evaluation of antimicrobial activity was used in the range of 0.05–2 mM, for the free ligands in the range of 0.5–2.0 mM in all experiments. […] The IC50 values were evaluated from toxicity curves. All the obtained results of antimicrobial activity were compared to the activity of Ga(NO3)3.

[3] = tested on: Pseudomonas aeruginosa (P. aeruginosa) CCM 1959; assay: as above; assay type: cell-based; settings: for IC50: Bacteria, MHB, 37 °C, DMSO max 1.0 vol. %, read-out: IC50 P. aeruginosa
Procedure: as §1

[4] = tested on: Staphylococcus aureus (S. aureus) CCM 3953; assay: as above; assay type: cell-based; settings: for IC50: Bacteria, MHB, 37 °C, DMSO max 1.0 vol. %, read-out: IC50 S. aureus
Procedure: as §1

[5] = tested on: Candida parapsilosis (C. parapsilosis) ATCC 22019; assay: Antimicrobial activity, macrodilution method (yeast, growth by A590); assay type: cell-based; settings: Yeast, Sabouraud's growth medium, 37 °C, read-out: IC50 C. parapsilosis
Procedure: as §1

[6] = tested on: Alternaria alternata (A. alternata) CCM F-128; assay: Growth of filamentous fungi, macrodilution method on solidified PDA (colony diameter); assay type: cell-based; settings: Filamentous fungi, solidified potato-dextrose growth medium, read-out: IC50 A. alternata
Procedure: as §1

[7] = tested on: Microsporum gypseum (M. gypseum) CCM F-8342; assay: as above; assay type: cell-based; settings: Filamentous fungi, solidified potato-dextrose growth medium, read-out: IC50 M. gypseum
Procedure: as §1

[8] = tested on: Rhizopus oryzae (R. oryzae) CCM F-8284; assay: as above; assay type: cell-based; settings: solidified potato-dextrose growth medium, read-out: IC50 R. oryzae
Procedure: as §1

[9] = tested on: A2058 (human metastatic melanoma); assay: MTS antiproliferative assay
Procedure: (§2) Cell culture the cell lines A2058 (human metastatic melanoma), BLM (human metastatic melanoma), HCT116 (human colorectal carcinoma), HeLa (human cervical adenocarcinoma), Jurkat (human leukaemic T cell lymphoma). […] Cells were maintained in standard conditions with an atmosphere containing 5% CO2 at 37 °C.
(§3) The antiproliferative activity of Ga(III) complexes GaPic, GaDpic, GaChel, GaCldpic, free ligands (HPic, H2Dpic, H2Chel, H2Cldpic) and cisplatin (cisPt) were evaluated by colorimetric microculture MTS (3-(4,5-dimethylthiazol-2-yl)-5-(3-carboxymethoxyphenyl)-2-(4-sulfophenyl)-2H tetrazolium) assay (Promega, Madison, WI, USA). Cancer and non-cancer cells were seeded at density 5 × 10^3 cells/well in 96-well polystyrene microplates. Twenty-four hours after cell seeding, different concentrations (1.0—100.0 µM) of the compounds were tested. After 72 h of incubation, 10 µL of MTS was added to each well. After an additional 2 h, cell proliferation was evaluated by measuring of absorbance at wavelength 490 nm using the automated Cytation™ 3 Cell Imaging Multi-Mode Reader (Biotek, Winooski, VT, USA). The absorbance of control wells was taken as 100%, and the results were expressed as a percent of untreated control. IC50 values were calculated from MTS analyses.

[10] = tested on: HCT116 (human colorectal carcinoma); assay: MTS antiproliferative assay
Procedure: as §2, §3

[11] = tested on: HeLa (human cervical adenocarcinoma); assay: MTS antiproliferative assay
Procedure: as §2, §3

[12] = tested on: Jurkat (human leukaemic T cell lymphoma); assay: MTS antiproliferative assay
Procedure: as §2, §3

[13] = tested on: MDA-MB-231 (human mammary gland adenocarcinoma); assay: MTS antiproliferative assay
Procedure: as §2, §3

[14] = tested on: PaTu 8902 (human pancreatic adenocarcinoma); assay: MTS antiproliferative assay
Procedure: as §2, §3

[15] = tested on: human dermal fibroblasts (HDF); assay: in vitro
Procedure: as §2, §3

[16] = biological target: T1, bovine serum albumin (BSA) (Bos taurus, UniProt P02769); assay: BSA fluorescence quenching (Stern-Volmer); assay type: binding; settings: 0.01 M PBS buffer pH 7.4, 25 °C, λex = 280 nm
T1 construct: purchased Sigma-Aldrich Chemicals
T1 sequence (P02769 25-607): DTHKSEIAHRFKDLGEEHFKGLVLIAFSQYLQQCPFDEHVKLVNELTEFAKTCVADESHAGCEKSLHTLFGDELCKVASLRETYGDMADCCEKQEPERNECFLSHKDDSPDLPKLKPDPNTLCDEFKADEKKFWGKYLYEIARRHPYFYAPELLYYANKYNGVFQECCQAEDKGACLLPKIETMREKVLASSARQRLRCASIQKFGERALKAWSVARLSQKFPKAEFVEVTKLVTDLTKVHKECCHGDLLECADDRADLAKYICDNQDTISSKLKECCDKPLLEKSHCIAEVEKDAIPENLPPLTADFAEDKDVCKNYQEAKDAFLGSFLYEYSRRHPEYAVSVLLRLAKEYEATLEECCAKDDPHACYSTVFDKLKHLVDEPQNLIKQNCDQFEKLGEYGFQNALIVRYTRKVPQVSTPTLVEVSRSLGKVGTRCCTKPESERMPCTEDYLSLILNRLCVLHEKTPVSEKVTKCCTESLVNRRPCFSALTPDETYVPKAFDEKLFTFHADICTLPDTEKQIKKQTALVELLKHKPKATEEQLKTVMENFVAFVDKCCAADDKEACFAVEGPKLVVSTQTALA
Procedure: Fluorescence measurements were carried out on a Varian Cary Eclipse spectrofluorometer. The quenching studies of BSA with the Ga(III) complexes were investigated to determine whether they were able to quench fluorescence of BSA. All measurements were performed at 25 °C in 0.01 M PBS buffer (pH 7.4). The fluorescence spectra were measured at an excitation wavelength of 280 nm, with a slit width of 10 nm for the excitation and emission beams, in the range of 300–450 nm and analysed according to the classical Stern–Volmer Equation: F0/F=1+KSVQ where F0 and F are the fluorescence intensities in the absence and the presence of the quencher, respectively, KSV is the Stern–Volmer constant, and [Q] is the concentration of quencher.

[17] = Complex stability in biological testing medium by time-dependent 1H NMR; assay type: physicochemical; settings: 300 K, over 96 h
Procedure: Nuclear magnetic resonance (NMR) data were collected on a Varian VNMRS 600 spectrometer operating at 599.87 MHz for ^1H. The concentration of all samples was approximately 3 mg/0.6 mL of 1% DMSO-d6/D2O. For comparison, the spectra of pure acids were also measured, while the pH of the solution of acids was adjusted to the same value as the solution of the complexes. The chemical shifts were referenced to the TSP (3-(trimethylsilyl)propionic-2,2,3,3-d4 acid sodium salt) peak (^1H NMR 0.00 ppm). The NMR data were recorded at 300 K, with chemical shifts δ reported in parts per million and coupling constants J in Hertz. All data were analysed using MestReNova 12.0.0 (2017) software. The stability in 1% DMSO-d6/D2O was determined for all samples. […]

any model microorganism = assay: Antimicrobial activity, macrodilution method, all model microorganisms together; assay type: cell-based; settings: free ligands, range 0.5–2.0 mM
Procedure: as §1, with “Cultures” for “The antimicrobial activities of gallium(III) complexes GaPic, GaDpic, GaChel, GaCldpic, free ligands (HPic, H2Dpic, H2Chel, H2Cldpic) and positive controls (cefoxitin (C), ampicillin (A) and piperacillin (P)) were evaluated by macrodilution method using G^+ bacteria (Firmicutes) Staphylococcus aureus (S. aureus) CCM 3953 (Czech Collection of Microorganisms), G^− bacteria (γ-proteobacteria) Escherichia coli (E. coli) CCM 3988, Pseudomonas aeruginosa (P. aeruginosa) CCM 1959 (Czech Collection of Microorganisms) and the yeast Candida parapsilosis (C. parapsilosis) ATCC 22019 (American type culture collection). Cultures”

in vitro = settings: human
Procedure: as §2, §3

[18] = tested on: cancer cell lines (A2780, MDA-MB-231, HCT116); design: method as in PMID 32354569; settings: cited from earlier work
[19] = Pseudomonas aeruginosa, CCM1959
[20] = Lodderomyces parapsilosis, ATCC22019
[21] = Homo sapiens, A2058, 72 h, read-out: Cytotoxic activity IC50 A2058
[22] = Homo sapiens, HCT-116, 72 h, read-out: Cytotoxic activity IC50 HCT116
[23] = Homo sapiens, HeLa, 72 h, read-out: Cytotoxic activity IC50 HeLa
[24] = Homo sapiens, Jurkat, 72 h, read-out: Cytotoxic activity IC50 Jurkat
[25] = Homo sapiens, MDA-MB-231, 72 h, read-out: Cytotoxic activity IC50 MDA-MB-231
[26] = Homo sapiens, PaTu 8902, 72 h, read-out: Cytotoxic activity IC50 PaTu 8902

| SMILES | decrease in cell viability of HepG2 ([1]; 100 μM) | IC50 ([2]; Escherichia coli, CCM3988) | IC50 [3, 19] | IC50 ([4]; Staphylococcus aureus, CCM3953) | IC50 [5, 20] | IC50 ([6]; Alternaria alternata) | IC50 ([7]; Nannizzia gypsea) | IC50 ([8]; Rhizopus arrhizus) | effect on the growth of any model microorganism (any model microorganism) | IC50 [9, 21] | IC50 [10, 22] | IC50 [11, 23] | IC50 [12, 24] | IC50 [13, 25] | IC50 [14, 26] | further results |
| --- | --- | --- | --- | --- | --- | --- | --- | --- | --- | --- | --- | --- | --- | --- | --- | --- |
| O=C([O-])c1ccccn1.[Ag+] [AgPic] | 40% | – | – | – | – | – | – | – | – | – | – | – | – | – | – | decrease in cell viability of HepG2 ([1]; 75 μM): 45% |
| Cc1occc(=O)c1[O-].Cc1occc(=O)c1[O-].Cc1occc(=O)c1[O-].[Ga+3] [GaM, Ga(III) maltolate] | – | – | – | – | – | – | – | – | – | – | – | – | – | – | – | IC50 (HepG2 cells): 25 to 35 µM |
| O.O=C([O-])c1ccccn1.O=C([O-])c1ccccn1.O=C([O-])c1ccccn1.[Ga+3] [GaPic, [Ga(Pic)3]·H2O] | 28% | – | – | – | – | – | – | – | – | – | – | – | – | – | – | IC50 [2]: > 2000 µM; IC50 [3]: 50 µM; MIC100 (MIC) P. aeruginosa ([3]; growth fully inhibited (100%)): 500 µM; IC50 [4]: 2000 µM; inhibition of S. aureus growth ([4]; complex at 2 mM): 50%; IC50 [5]: > 2000 µM; IC50 [6]: > 2000 µM; IC50 [7]: > 2000 µM; IC50 [8]: > 2000 µM; IC50 [9]: 187 ± 12.2 µM; IC50 [10]: 995 ± 27.5 µM; IC50 [11]: 1530 ± 108 µM; IC50 [12]: 175 ± 47.7 µM; IC50 [13]: 152 ± 74.3 µM; IC50 [14]: 271 ± 34.3 µM; IC50 [15]: 231 ± 23.8 µM; Stern–Volmer binding constant Ksv BSA [16]: 46700 M⁻¹; stability in 1% DMSO-d6/D2O solution [17]: does not decompose |
| O=C(O)c1cc(O)cc(C(=O)O)n1 [H2Chel, chelidamic acid] | – | > 500 µM | > 500 µM | > 500 µM | > 500 µM | > 500 µM | > 500 µM | > 500 µM | did not affect the growth | > 200 µM | > 200 µM | > 200 µM | > 200 µM | > 200 µM | > 200 µM | IC50 at 72 h (in vitro): > 200 µM |
| O=C(O)c1cc(Cl)cc(C(=O)O)n1 [H2Cldpic, 4-chlorodipicolinic acid] | – | > 500 µM | > 500 µM | > 500 µM | > 500 µM | > 500 µM | > 500 µM | > 500 µM | did not affect the growth | > 200 µM | > 200 µM | > 200 µM | > 200 µM | > 200 µM | > 200 µM | IC50 at 72 h (in vitro; human dermal fibroblasts (HDF)): > 200 µM |
| CO.[Ga+3].[O-]c1ccc(Cl)c2cccnc12.[O-]c1ccc(Cl)c2cccnc12.[O-]c1ccc(Cl)c2cccnc12 [[Ga(ClQ)3]⋅MeOH] | – | – | – | – | – | – | – | – | – | – | – | – | – | – | – | activity of the Ga(III) complex relative to the activity of H-ClQ [18]: at least 2.5 times |
